Patent US9371294B2, “Cycloalkenyl aryl derivatives for CETP inhibitor” (CHONG KUN DANG PHARMACEUTICAL CORP., priority 2011, dated 2016)

target: T1, cholesteryl ester transfer protein (Homo sapiens, UniProt P11597); assay: In vitro test for the ability to inhibit cholesteryl ester transfer; assay type: biochemical; details: [3H]-cholesteryl oleate transfer from rHDL-agarose to LDL; human plasma as CETP source; 37° C.; 16-10000 nM, duplicate
T1 construct: As a source of cholesteryl ester transfer protein, plasma from healthy humans was used; from tissue; host or cells: plasma from healthy humans
T1 sequence (P11597 18-493): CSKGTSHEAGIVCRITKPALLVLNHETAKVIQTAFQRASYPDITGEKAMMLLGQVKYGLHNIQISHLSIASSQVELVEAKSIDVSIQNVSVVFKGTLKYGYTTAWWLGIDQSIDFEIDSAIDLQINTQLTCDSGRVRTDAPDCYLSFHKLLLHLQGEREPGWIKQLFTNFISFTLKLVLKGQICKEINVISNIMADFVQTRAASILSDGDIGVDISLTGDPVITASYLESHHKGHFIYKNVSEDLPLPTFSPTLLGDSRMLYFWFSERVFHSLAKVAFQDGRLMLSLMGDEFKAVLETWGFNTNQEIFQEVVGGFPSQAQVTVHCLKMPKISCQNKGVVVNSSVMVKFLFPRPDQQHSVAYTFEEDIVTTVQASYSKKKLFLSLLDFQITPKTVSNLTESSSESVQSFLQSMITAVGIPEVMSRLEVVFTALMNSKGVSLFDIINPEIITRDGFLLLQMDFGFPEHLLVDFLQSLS
Method in brief: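 Human plasma served as the CETP source, with human LDL (0.25 mg/ml) as acceptor and agarose-immobilised recombinant HDL carrying [3H]-cholesteryl oleate (0.25 mg/ml) as donor, at 37 °C. Compounds were run in duplicate at 16–10000 nM. Transferred radioactivity in the supernatant was counted by beta detection, and IC50 was fitted from the fraction of label transferred to LDL.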

Point of comparison: `COC(=O)N(C)c1ccc(OC)c(C2=C(CN3C(=O)O[C@H](c4cc(C(F)(F)F)cc(C(F)(F)F)c4)[C@@H]3C)CC(C)(C)CC2)c1` [Compound 124, methyl 3-(2-(((4S,5R)-5-(3,5-bis(trifluoromethyl)phenyl)-4-methyl-2-oxooxazolidin-3-yl)methyl)-4,4-dimethylcyclohex-1-enyl)-4-methoxyphenyl(methyl)carbamate], IC50 20 nM. Against it:
- COc1cc(F)c(C(C)C)cc1C1=C(CN2C(=O)O[C@H](c3cc(C(F)(F)F)cc(C(F)(F)F)c3)[C@@H]2C)CN(C(C)C)CC1 [Compound 265, (4S,5R)-5-(3,5-bis(trifluoromethyl)phenyl)-3-((4-(4-fluoro-5-isopropyl-2-methoxyphenyl)-1-isopropyl-1,2,5,6-tetrahydropyridin-3-yl)methyl)-4-methyloxazolidin-2-one] — 8.2-fold higher, 164 nM
- COc1ccc(CCC(=O)O)cc1C1=C(CN2C(=O)O[C@H](c3cc(C(F)(F)F)cc(C(F)(F)F)c3)[C@@H]2C)CC(C)(C)CC1 [Compound 273, 3-(3-(2-(((4S,5R)-5-(3,5-bis(trifluoromethyl)phenyl)-4-methyl-2-oxooxazolidin-3-yl)methyl)-4,4-dimethylcyclohex-1-enyl)-4-methoxyphenyl)propanoic acid] — 11-fold higher, 217 nM
- COc1cc(F)c(N(C)C(C)=O)cc1C1=C(CN2C(=O)O[C@H](c3cc(C(F)(F)F)cc(C(F)(F)F)c3)[C@@H]2C)CC(C)(C)CC1 [Compound 215, N-(5-(2-(((4S,5R)-5-(3,5-bis(trifluoromethyl)phenyl)-4-methyl-2-oxooxazolidin-3-yl)methyl)-4,4-dimethylcyclohex-1-enyl)-2-fluoro-4-methoxyphenyl)-N-methylacetamide] — the same, 20 nM
- COc1cc(F)c(C(=O)C2CC2)cc1C1=C(CN2C(=O)O[C@H](c3cc(C(F)(F)F)cc(C(F)(F)F)c3)[C@@H]2C)CC(C)(C)CC1 [Compound 192, (4S,5R)-5-(3,5-bis(trifluoromethyl)phenyl)-3-((2-(5-(cyclopropanecarbonyl)-4-fluoro-2-methoxyphenyl)-5,5-dimethylcyclohex-1-enyl)methyl)-4-methyloxazolidin-2-one] — 3-fold higher, 60 nM
- COc1ccc(N(C)C(=O)C(C)C)cc1C1=C(CN2C(=O)O[C@H](c3cc(C(F)(F)F)cc(C(F)(F)F)c3)[C@@H]2C)CCCC1 [Compound 86, N-(3-(2-(((4S,5R)-5-(3,5-bis(trifluoromethyl)phenyl)-4-methyl-2-oxooxazolidin-3-yl)methyl)cyclohex-1-enyl)-4-methoxyphenyl)-N-methylisobutyramide] — 5.5-fold higher, 110 nM
- COc1ccc(C(C)(C)O)cc1C1=C(CN2C(=O)O[C@H](c3cc(C(F)(F)F)cc(C(F)(F)F)c3)[C@@H]2C)CC(C)(C)CC1 [Compound 104, (4S,5R)-5-(3,5-bis(trifluoromethyl)phenyl)-3-((2-(5-(2-hydroxypropan-2-yl)-2-methoxyphenyl)-5,5-dimethylcyclohex-1-enyl)methyl)-4-methyloxazolidin-2-one] — 9-fold higher, 180 nM
- COc1ccc(CCC#N)cc1C1=C(CN2C(=O)O[C@H](c3cc(C(F)(F)F)cc(C(F)(F)F)c3)[C@@H]2C)CC(C)(C)CC1 [Compound 300, 3-(3-(2-(((4S,5R)-5-(3,5-bis(trifluoromethyl)phenyl)-4-methyl-2-oxooxazolidin-3-yl)methyl)-4,4-dimethylcyclohex-1-enyl)-4-methoxyphenyl)propanenitrile] — 20-fold lower, 1 nM
- COc1cc(F)c(C(C)C)cc1C1=C(CN2C(=O)O[C@H](c3cc(C(F)(F)F)cc(C(F)(F)F)c3)[C@@H]2C)CC(C(C)(C)C)CC1 (stereo partly drawn) [Compound 101, (4S,5R)-5-(3,5-bis(trifluoromethyl)phenyl)-3-((5-tert-butyl-2-(4-fluoro-5-isopropyl-2-methoxyphenyl)cyclohex-1-enyl)methyl)-4-methyloxazolidin-2-one] — 3.5-fold higher, 70 nM
